Data as given in patent US20200062719A1, “Application of Imidazopyridine Derivatives in Regenerative Medicine” (University of Heidelberg, priority 2018, published 2020).

Legend:
[1] = molecular target: methylated H3K4; test: In vitro H3K4 methylation assay (Epiquik histone demethylase H3K4 specific kit); format: biochemical; settings: in vitro methylation assay; read-out: IC50, protection of methylated H3K4
Method: (§1) Epiquik histone demethylase (H3K4 specific) activity/inhibition assay kit (Epigentek, Biocat, Germany) was used to measure the protective effect of O4I3 and zolpidem on the methylation of H3K4. Their inhibitory effects on LSD1, KDM5s, and KDM4 were determined using Epigenase jarid demethylase activity/inhibition assay kit, Epigenase JMJD2 demethylase activity/inhibition assay kit and EpiQuik histone demethylase LSD1 activity/inhibition assay kit (Epigentek, Biocat, Germany). The total nuclear extraction was used according to manufacturer's instructions. For measuring KDM5A, KDM5B, KDM5C, and KDM5D activity, magnetic beads were used to immunoprecipitate the respective enzymes from 10^8 cells according to the manufacturer's instructions (Cell Signaling Technologies).

[2] = test system: KDM4; test: KDM4 (JMJD2) demethylase inhibition, nuclear extraction; format: biochemical
Source text: (§2) HMT and HDM are two major classes of enzymes, contributing to the regulation of histone methylation. Lysine-specific demethylase 1 (LSD1) and histone lysine demethylase 5 (KDM5, also known as JARID1) majorly catalyze demethylation of H3K4. A few KDM5 chemical inhibitors have been reported to inhibit demethylation of H3K4, leading to an increase of global methylated H3K4 in various cell types. The inventors tested the inhibitory effect of O4I3 on LSD1 and KDM5. KDM4 (also known as JMJD2), the HDM of H3K9 and H3K36, was also included.
as §1

[3] = molecular target: T1, KDM4; test: as above; format: biochemical; settings: whole-cell nuclear extraction
T1 construct: other: whole-cell nuclear extraction; other: micromolar concentrations
Source text: as §2, §1

[4] = molecular target: T2, KDM5A (Homo sapiens, UniProt P29375); test: KDM5A inhibition, enzyme immunoprecipitated from cells; format: biochemical
T2 construct: magnetic beads were used to immunoprecipitate the respective enzymes from 10^8 cells; endogenous in cells
Source text: In mammalian cells, the KDM5 family consists of four members, namely, KDM5A (known as JARID1A), KDM5B (known as JARID1B or PLU1), KDM5C (JARID1C), and KDM5D (JARID1D or SMCY). […] Next, the inventors tested four KDM chemical inhibitors. […] The inventors detected the induction of OCT4, SOX2, and E-Cadherin expression in JIB-04-treated HFs (FIG. 18D).
as §1

[5] = test system: hiPSCs; test: Differentiation markers in hiPSCs at high concentration; format: cell-based, human; settings: 10 μM
[6] = test system: reprogramming-related proteins; test: Phosphorylation microarray in NCCIT and JoPaca-1 cells; format: cell-based; settings: NCCIT and JoPaca-1, 1 μM, 24 hours
Method: Cells were analysed in the presence (24 hours O4I3 1 μM) or absence (NT) of O4I3.
The cellular responses to O4I3 was analyzed in two stem cell lines, NCCIT and JoPaca-1 (FIG. 10).

[7] = test system: promoter of Oct4; test: ChIP-qPCR of H3K4Me3 at the promoter of Oct4 in reprogramming-resistant fibroblasts; format: cell-based, human; settings: reprogramming-resistant patient fibroblasts
Source text: The importance of active tri-methylation of histone H3 lysine 4 (H3K4Me3) in promoting transcription factors binding to an ‘open’ chromatin state and thereby initiation of reprogramming is known in the art. In good agreement, the inventors found the abundance of H3K4Me3 in O4I3-treated reprogramming-resistant fibroblasts by immunostaining (FIG. 14) and immunoblotting (FIG. 5B). To directly study if O4I3 facilitated the binding of H3K4Me3 to the promoter of Oct4, a CHIP-qPCR experiment was performed.
In reprogramming-resistant HF4, the level of H3K4Me3 at the promoter of OCT4 was increased by OSKM, but was still nearly 1,000-fold lower than that in PSCs (FIG. 19A). […] However, a clear influence on H3K4 methylation was not observed in the presence of KDM5B-, KDM5C-, or KDM5D-siRNA (FIG. 19A). […] Indeed, the reprogramming efficiency is negatively correlated with the expression of KDM5A in 11 HFs (FIG. 19D). Moreover, KDM5A siRNA increased the global level of H3K4Me3 in a dose-dependent manner (FIG. 19E). Of note, the alternation in the occupation of H3K27Me3 at the promoter of OCT4 was more refractory to chemical inhibition or genetic repression of KDM5s in the inventors' experiments (FIG. 19B). […]

[8] = test system: iPSCs; test: qRT-PCR gene expression in iPSCs; format: cell-based, human; settings: 50 nM, 24 h
Method: A) O4I3 promoted the viability of hiPSCs in single cell expansion. B) Homogeneous expression of […] and Oct4 up to passage (p) 30 in hiPSCs treated with 50 nM O4I3 analyzed by FACS C) Relative fold changes to non-treatment in hiPSCs treated with O4I3 (50 nM) for 24 h analyzed by qRT-PCR. D) Gene expression profiling analysis of functional annotation enrichment for categories related to pluripotency, development and homeostasis in O4I3-treated iPSCs for 24 h. Data are represented as mean±SD from at least 3 independent experiments ***: p<0.001; **: p<0.01; *: p<0.05.
Quantitative reverse-transcription real-time-PCR was performed using a Light Cycler 96 (Roche, Germany) following the manufacturer's protocol. Briefly, total RNA was isolated from cells using TRIzol (Qiagen, Germany) or NucleoSpin®RNA Plus (Macherey-Nagel, Germany). The same amount of RNA was used to reverse-transcriptional synthesize cDNA by using random primers ProtoScript® First Strand cDNA Synthesis Kit (NEB, Germany). qPCR was performed using the SYBR Green PCR master mix (qPCRBIO SyGreen Mix Lo-Rox, Nippon Genetics, Germany) and the primer pairs indicated below (MWG, Eurofins, Germany). Actin was used as an endogenous control. Data were normalized to the value of untreated cells showing the mean±SD of quadruplicates and are representative of at least three independent experiments.

[9] = test system: Oct4; test: Luciferase reporter assay in NCCIT-Oct4 cells; format: cell-based, human; settings: O4I3 1 nM, a 10,000-fold lower concentration; both reporter cell lines

T2 sequence (P29375 whole entry): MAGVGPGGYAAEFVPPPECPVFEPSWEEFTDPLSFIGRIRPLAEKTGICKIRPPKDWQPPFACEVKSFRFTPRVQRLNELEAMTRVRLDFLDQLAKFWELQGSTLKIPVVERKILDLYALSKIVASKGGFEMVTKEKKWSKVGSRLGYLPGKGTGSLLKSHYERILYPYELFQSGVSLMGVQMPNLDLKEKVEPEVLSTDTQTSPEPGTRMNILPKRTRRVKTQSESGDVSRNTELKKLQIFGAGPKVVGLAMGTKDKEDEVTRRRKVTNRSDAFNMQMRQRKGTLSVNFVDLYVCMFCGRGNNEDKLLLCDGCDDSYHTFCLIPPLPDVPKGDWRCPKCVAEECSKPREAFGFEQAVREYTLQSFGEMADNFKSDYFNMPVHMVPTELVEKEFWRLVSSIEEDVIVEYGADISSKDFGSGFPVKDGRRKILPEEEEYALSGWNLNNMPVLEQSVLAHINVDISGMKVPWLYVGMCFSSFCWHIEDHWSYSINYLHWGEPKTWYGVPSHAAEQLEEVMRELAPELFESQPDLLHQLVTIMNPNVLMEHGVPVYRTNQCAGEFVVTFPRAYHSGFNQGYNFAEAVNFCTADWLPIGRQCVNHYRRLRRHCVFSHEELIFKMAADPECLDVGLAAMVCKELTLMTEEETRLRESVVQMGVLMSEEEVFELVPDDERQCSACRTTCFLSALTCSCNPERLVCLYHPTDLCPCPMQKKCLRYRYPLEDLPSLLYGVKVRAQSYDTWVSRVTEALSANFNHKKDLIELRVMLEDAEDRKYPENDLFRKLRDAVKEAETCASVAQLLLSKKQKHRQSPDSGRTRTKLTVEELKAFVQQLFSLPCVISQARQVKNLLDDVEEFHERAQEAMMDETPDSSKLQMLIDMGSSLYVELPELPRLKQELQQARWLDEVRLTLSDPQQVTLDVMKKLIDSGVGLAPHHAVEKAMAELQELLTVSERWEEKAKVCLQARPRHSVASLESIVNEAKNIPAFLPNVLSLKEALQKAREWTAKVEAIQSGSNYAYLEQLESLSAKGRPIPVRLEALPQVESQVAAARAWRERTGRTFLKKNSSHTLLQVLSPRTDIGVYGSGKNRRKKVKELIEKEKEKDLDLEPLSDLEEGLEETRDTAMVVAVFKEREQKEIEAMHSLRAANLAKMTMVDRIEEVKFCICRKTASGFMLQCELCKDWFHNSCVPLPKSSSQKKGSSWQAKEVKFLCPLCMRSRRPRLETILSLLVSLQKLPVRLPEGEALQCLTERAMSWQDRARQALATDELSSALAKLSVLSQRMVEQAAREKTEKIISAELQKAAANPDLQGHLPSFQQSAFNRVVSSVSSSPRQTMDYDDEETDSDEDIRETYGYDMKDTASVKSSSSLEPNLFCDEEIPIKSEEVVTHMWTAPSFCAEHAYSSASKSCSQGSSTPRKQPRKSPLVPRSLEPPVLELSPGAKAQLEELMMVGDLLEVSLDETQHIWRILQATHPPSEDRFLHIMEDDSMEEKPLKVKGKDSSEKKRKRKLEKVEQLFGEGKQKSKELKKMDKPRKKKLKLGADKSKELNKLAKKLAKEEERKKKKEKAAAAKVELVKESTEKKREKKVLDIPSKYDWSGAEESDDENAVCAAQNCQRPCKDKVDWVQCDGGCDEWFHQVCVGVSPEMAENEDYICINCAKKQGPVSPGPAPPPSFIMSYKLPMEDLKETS

Cc1ccc(-c2cn3cc(C)ccc3n2)cc1 [O4I3, 6-methyl-2-(p-tolyl)imidazo[1,2-a]pyridine]
IC50 [1]: 20 nM
less potency on KDM4 than on KDM5 [2]: 500 fold
IC50 [3]: 249 nM
IC50 [4]: 0.19 nM
differentiation markers T and Gata4 [5]: induction of those markers
activation of Erk1 [6]: selectively activated
activation of Erk2 [6]: not
enrichment of H3K4Me3 at the promoter of Oct4 [7]: increased enrichment
expression of pluripotency-associated genes [8]: stabilized or slightly increased
induction versus zolpidem at 10 μM [9]: comparable induction
